# The source made the active and inactive calls.
# Assays:
# Vero [1] = experiment: cells; format: functional, cell-based; conditions: Chlorocebus sabaeus
# Vero [2] = experiment: cells; format: functional; conditions: Chlorocebus sabaeus
# [3] = target: Luciferin 4-monooxygenase (Photinus pyralis, UniProt P08659); experiment: Counter Screen for Luciferase-based Assay Positives. [Related pubchem assays: 620, 618, 411 ]
# HT-1080 = experiment: cytotoxicity in HT1080 fibrosarcoma cells, cell-based, fluorescence readout (AID 620); format: functional; conditions: Homo sapiens
# [4] = growth suppression of PTEN-null colon cells, dose response, cell-based, HCT116 PTEN knockout (AID 1047); format: functional;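 also: HCT116 colon tumor cells with PTEN knocked out; cells exposed to compound for 60 hours before readout; potency for loss of cell viability measured by luminescence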
# [5] = growth suppression of beta-catenin-knockout colon cells, dose response, cell-based, HCT116, human colon tumor (AID 1045); format: functional;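 also: HCT116 colon tumor cells with beta catenin knocked out; cells exposed to compound for 60 hours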
# [6] = THP-1 cell cytotoxicity, dose response, cytotoxicity control for non-replicating M. tuberculosis project (AID 489025); format: functional
# [7] = HepG2 cell cytotoxicity, dose response, cytotoxicity control for non-replicating M. tuberculosis project (AID 489018); format: functional; conditions: Mycobacterium tuberculosis
# [8] = Vero E6 cell cytotoxicity, dose response, cytotoxicity control for non-replicating M. tuberculosis project, secondary assay (AID 492998); format: functional, VeroE6; conditions: Vero C1008
# cells [9] = format: functional
# [10] = target: Peroxisome proliferator-activated receptor gamma/Nuclear receptor coactivator 1 (Homo sapiens, UniProt P37231); experiment: TR-FRET dose response biochemical High Throughput Screening assay for agonists of the steroid receptor coactivator 1 (SRC-1) recruitment by the peroxisome proliferator-activated receptor gamma (PPAR gamma): non-selective agonists. [Related pubchem assays (depositor defined):AID1300, AID1808, AID504735, AID631]; format: protein assay
# [11] = target: Peroxisome proliferator-activated receptor gamma/Nuclear receptor coactivator 3 (Homo sapiens, UniProt P37231); experiment: TR-FRET dose response biochemical High Throughput Screening assay for agonists of the steroid receptor coactivator 3 (SRC-3) recruitment by the peroxisome proliferator-activated receptor gamma (PPAR gamma): non-selective agonists. [Related pubchem assays: 1301 (Confirmation screen.), 1048 (Primary screen.)]; format: functional
# [12] = target: Peroxisome proliferator-activated receptor gamma/Nuclear receptor coactivator 2 (Homo sapiens, UniProt P37231); experiment: TR-FRET dose response biochemical High Throughput Screening assay for agonists of the steroid receptor coactivator 2 (SRC-2) recruitment by the peroxisome proliferator-activated receptor gamma (PPAR gamma): non-selective agonists. [Related pubchem assays: 1297, 1032 ]; format: functional
# [13] = HEp-2 cell cytotoxicity, dose response, cytotoxicity control for RSV inhibitor project, HTS (AID 2410); format: functional; conditions: human respiratory syncytial virus
# BJ [14] = experiment: cytotoxicity toward BJ-TERT fibroblasts, dose response, cell-based, RAS-independent, luminescence (AID 1933); format: functional; conditions: Homo sapiens
# BJ [15] = experiment: cells; format: functional, cell-based; conditions: Homo sapiens
# BJ [16] = experiment: cytotoxicity toward BJ-TERT-LT-ST fibroblasts, dose response, cell-based, RAS-independent, luminescence (AID 1935); format: functional; conditions: Homo sapiens;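 also: BJ fibroblasts immortalized with TERT plus LT and ST oncogenes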
# [17] = cytotoxicity toward DRD oncogenic fibroblasts, dose response, cell-based, non-viral oncogenic, luminescence (AID 1934); format: functional; conditions: Homo sapiens
# cells [18] = experiment: cells
# [19] = microbe, parasite or virus in culture; format: functional; conditions: Mycobacterium tuberculosis
# [20] = target: T1, Short transient receptor potential channel 4 (Mus musculus, UniProt Q9QUQ5); experiment: mouse TRPC4 channel activators, dose response, cell-based, HEK293 TRPC4/mu-opioid, Fluo-4 calcium (AID 434937); format: functional
# T1 sequence (Q9QUQ5 whole entry): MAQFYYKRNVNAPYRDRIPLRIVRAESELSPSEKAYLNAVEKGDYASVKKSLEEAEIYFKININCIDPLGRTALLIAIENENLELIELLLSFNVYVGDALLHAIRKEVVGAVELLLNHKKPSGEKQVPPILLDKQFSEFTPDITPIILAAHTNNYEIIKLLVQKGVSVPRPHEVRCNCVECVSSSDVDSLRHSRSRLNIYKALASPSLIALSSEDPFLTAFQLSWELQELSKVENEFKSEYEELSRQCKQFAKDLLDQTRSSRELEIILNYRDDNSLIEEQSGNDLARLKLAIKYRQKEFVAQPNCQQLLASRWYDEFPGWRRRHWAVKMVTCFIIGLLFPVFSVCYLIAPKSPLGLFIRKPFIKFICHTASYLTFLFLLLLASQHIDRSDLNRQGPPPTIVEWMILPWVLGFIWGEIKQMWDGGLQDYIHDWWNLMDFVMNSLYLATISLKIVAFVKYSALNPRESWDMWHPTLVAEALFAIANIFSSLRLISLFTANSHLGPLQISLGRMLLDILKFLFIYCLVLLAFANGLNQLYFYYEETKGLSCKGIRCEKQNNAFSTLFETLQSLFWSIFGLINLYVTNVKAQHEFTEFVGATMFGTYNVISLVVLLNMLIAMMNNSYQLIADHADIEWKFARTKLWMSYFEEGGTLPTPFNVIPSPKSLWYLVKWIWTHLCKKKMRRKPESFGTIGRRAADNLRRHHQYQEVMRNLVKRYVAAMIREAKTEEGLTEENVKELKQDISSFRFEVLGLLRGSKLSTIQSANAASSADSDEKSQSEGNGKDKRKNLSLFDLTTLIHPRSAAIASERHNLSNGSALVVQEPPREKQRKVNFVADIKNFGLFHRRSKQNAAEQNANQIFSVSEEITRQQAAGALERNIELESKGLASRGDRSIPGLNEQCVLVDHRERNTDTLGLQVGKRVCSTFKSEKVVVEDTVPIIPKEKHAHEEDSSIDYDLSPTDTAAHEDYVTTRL
# [21] = A Cell Based Secondary Assay To Explore Cytotoxicity of Compounds that Sensitize Mycobacterium Tuberculosis to Beta-Lactam Antibiotics.; format: functional
# [22] = insulin promoter down-regulators in MIN6 cells, imaging, high-content screening, mouse beta cells (AID 1628); format: functional
# [23] = cytotoxicity in MIN6 insulinoma cells, dose response, cytotoxicity control, cell-based, mouse insulinoma (AID 2122); format: functional;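 also: confirmatory high-throughput counterscreen run to flag cytotoxic compounds; mouse MIN-6 beta cells carrying an insulin promoter eGFP reporter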
# [24] = target: FAD-linked sulfhydryl oxidase ALR (Homo sapiens, UniProt P55789); experiment: inhibitors of human ALR sulfhydryl oxidase, dose response, biochemical, H2O2 detection, luminescence, cherry-pick (AID 493248)
# [25] = intracellular Trypanosoma cruzi inhibitors in host cells – cell-based, plate reader, cherry-pick samples, set 3, dose response (AID 651818); format: functional;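 also: compounds incubated with infected cells for about four days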
# [26] = target: Dual specificity tyrosine-phosphorylation-regulated kinase 1A (Rattus norvegicus, UniProt Q63470); format: biochemical, Homo sapiens
# [27] = inhibitors of intracellular T. cruzi replication, confirmation, NIH3T3 host cells, beta-gal luminescence (AID 2044); format: functional, cell-based;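 also: intracellular parasites grown in NIH/3T3 mouse fibroblasts as host cells; luminescent beta-galactosidase reporter signal from transgenic T. cruzi replicating inside host cells; inhibitors lower the luminescence signal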
# [28] = cytotoxicity toward NIH3T3 fibroblasts, dose response, counter-screen, cell-based, ATP luminescence, mouse fibroblasts (AID 2010); format: functional;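 also: cells exposed to compound for about 90 hours before reading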
# [29] = P. falciparum 3D7-ScDHODH growth inhibitors, dose response, SYBR Green, dry powder samples (AID 1159570); format: functional, cell-based;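 also: parasite growth measured after 72 hours of compound exposure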
# [30] = HepG2 cell cytotoxicity, dose response, cytotoxicity control, plate reader, dry powder samples (AID 1159569); format: functional, cell-based;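 also: inhibitor potency with signal falling toward the positive control level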
# [31] = P. falciparum Dd2 growth inhibitors, dose response, SYBR Green, cherry-picked samples (AID 1159567); format: functional, cell-based
# [32] = P. falciparum Dd2 growth inhibitors, dose response, SYBR Green, dry powder samples (AID 1159566); format: functional, cell-based;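 also: potency for growth inhibition with lower SYBR green DNA signal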
# [33] = HepG2 cell cytotoxicity, dose response, cytotoxicity control, cherry-picked samples (AID 1159577); format: functional, cell-based
# [34] = P. falciparum ATP4 D1247Y mutant growth inhibitors, dose response, NITD609-resistant line, SYBR Green, dry powder (AID 1159571); format: functional, cell-based;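 also: parasites synchronized at ring stage by sorbitol before testing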
# Sequence of Peroxisome proliferator-activated receptor gamma/Nuclear receptor coactivator 1 (P37231 whole entry): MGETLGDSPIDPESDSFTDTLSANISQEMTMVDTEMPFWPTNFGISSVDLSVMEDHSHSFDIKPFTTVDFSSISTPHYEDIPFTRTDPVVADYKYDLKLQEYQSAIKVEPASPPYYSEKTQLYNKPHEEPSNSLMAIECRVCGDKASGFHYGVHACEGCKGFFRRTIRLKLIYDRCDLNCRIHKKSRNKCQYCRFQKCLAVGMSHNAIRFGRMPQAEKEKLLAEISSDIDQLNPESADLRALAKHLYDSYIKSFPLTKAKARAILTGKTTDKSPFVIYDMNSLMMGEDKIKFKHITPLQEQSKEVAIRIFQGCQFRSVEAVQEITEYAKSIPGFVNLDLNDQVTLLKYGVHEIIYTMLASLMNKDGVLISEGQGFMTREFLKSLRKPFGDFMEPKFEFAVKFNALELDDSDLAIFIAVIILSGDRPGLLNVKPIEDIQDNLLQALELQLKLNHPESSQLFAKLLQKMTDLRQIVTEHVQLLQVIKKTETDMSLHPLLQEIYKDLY
# Sequence of Peroxisome proliferator-activated receptor gamma/Nuclear receptor coactivator 1 (Q15788 whole entry, further chain): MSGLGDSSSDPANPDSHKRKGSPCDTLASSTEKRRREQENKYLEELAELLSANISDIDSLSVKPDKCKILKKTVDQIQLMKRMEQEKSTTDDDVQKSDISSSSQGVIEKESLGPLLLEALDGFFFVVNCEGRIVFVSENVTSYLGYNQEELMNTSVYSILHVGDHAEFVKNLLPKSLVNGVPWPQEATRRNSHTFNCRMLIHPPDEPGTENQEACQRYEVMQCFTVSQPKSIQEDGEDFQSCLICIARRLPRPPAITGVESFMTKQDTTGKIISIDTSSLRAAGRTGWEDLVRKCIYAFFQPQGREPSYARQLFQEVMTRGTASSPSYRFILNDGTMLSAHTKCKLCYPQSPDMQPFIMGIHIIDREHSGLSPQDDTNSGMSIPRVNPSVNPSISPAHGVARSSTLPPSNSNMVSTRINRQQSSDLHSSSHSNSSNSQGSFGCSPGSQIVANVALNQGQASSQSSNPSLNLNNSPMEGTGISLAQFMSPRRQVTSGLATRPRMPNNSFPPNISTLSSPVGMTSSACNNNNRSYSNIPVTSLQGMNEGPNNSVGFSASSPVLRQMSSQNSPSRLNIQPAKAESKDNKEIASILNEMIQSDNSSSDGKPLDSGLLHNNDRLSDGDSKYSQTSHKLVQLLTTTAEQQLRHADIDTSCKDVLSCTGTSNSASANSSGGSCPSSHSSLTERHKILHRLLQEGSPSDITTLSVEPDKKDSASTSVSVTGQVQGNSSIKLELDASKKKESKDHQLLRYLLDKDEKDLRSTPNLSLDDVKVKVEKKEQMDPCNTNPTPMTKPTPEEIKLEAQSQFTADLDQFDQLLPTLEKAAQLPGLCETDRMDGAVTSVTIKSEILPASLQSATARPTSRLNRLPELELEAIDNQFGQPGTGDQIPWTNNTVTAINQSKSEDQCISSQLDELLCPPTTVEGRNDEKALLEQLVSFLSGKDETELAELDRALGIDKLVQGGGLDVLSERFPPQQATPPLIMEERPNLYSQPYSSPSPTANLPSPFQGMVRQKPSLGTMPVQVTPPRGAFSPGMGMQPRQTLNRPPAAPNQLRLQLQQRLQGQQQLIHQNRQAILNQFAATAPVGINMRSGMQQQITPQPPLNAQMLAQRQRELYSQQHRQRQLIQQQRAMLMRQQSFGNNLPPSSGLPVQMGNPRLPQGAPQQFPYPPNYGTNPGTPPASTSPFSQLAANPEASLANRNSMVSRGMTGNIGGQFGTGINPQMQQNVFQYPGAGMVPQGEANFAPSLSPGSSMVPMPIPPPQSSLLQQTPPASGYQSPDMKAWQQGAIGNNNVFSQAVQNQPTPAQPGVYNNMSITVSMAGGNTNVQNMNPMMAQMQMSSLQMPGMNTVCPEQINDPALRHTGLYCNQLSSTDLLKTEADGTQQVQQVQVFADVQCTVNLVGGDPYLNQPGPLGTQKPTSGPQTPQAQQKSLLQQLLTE
# Sequence of Peroxisome proliferator-activated receptor gamma/Nuclear receptor coactivator 2 (P37231 whole entry): as the sequence (P37231 whole entry) above
# Sequence of Peroxisome proliferator-activated receptor gamma/Nuclear receptor coactivator 2 (Q15596 whole entry, further chain): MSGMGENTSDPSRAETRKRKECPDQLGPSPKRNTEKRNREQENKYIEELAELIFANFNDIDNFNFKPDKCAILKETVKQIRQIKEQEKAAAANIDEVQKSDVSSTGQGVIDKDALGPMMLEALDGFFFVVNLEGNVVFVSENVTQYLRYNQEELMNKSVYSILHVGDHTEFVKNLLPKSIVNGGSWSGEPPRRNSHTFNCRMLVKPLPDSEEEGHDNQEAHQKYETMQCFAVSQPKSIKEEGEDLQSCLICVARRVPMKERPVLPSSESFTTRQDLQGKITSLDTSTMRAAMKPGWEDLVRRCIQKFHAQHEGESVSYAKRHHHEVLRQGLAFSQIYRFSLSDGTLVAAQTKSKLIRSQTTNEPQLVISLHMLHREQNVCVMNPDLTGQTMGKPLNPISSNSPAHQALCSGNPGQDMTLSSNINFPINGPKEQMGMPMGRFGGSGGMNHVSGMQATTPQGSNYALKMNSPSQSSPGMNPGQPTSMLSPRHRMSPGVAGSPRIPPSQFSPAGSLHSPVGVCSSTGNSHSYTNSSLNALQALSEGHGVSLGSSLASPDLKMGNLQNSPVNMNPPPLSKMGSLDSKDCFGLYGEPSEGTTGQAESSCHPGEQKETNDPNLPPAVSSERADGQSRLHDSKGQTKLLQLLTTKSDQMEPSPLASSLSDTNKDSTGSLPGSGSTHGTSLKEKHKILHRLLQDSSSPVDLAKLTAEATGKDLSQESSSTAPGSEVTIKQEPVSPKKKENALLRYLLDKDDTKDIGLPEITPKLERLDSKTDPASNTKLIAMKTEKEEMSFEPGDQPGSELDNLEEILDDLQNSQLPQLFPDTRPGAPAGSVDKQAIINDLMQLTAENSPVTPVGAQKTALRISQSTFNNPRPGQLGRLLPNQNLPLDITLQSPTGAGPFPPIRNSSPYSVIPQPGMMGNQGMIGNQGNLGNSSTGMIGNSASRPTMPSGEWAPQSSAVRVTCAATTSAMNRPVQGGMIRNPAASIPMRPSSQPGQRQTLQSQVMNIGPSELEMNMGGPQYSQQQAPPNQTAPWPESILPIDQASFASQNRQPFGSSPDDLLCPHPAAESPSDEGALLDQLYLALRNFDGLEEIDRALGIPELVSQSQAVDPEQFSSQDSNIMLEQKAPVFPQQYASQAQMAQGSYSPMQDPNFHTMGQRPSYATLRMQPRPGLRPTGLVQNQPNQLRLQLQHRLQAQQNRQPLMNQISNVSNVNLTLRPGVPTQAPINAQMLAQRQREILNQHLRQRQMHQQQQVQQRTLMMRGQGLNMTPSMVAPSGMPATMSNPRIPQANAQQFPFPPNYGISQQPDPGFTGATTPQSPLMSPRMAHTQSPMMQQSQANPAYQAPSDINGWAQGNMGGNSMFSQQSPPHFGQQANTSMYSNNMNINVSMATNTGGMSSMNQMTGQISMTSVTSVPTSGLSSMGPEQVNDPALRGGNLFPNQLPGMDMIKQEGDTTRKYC
# Sequence of Luciferin 4-monooxygenase (P08659 whole entry): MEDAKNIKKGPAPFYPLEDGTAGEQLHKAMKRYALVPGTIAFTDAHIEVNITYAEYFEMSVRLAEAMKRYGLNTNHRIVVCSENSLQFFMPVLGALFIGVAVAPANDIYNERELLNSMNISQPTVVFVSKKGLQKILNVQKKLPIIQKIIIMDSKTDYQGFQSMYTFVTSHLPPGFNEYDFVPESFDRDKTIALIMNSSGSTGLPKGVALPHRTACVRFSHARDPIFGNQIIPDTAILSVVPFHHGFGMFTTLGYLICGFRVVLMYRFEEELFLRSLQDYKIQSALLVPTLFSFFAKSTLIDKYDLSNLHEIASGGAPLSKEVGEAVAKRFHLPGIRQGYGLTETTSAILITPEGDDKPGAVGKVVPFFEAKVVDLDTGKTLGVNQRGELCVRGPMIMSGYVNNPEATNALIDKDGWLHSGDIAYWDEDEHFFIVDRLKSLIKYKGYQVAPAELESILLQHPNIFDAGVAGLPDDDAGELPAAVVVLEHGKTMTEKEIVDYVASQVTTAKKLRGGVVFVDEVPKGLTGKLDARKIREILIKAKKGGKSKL
# Sequence of FAD-linked sulfhydryl oxidase ALR (P55789 whole entry): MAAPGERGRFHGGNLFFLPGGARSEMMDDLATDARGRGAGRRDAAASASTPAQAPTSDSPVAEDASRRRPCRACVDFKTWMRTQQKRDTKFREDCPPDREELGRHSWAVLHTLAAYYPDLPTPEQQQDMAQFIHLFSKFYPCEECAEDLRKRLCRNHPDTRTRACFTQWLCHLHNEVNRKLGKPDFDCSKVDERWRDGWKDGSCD
smiles,measurement,setting,value
O=C(c1ccc2c(c1)N(Cc1cccc(Cl)c1)C(=O)c1ccccc1S2(=O)=O)N1CCN(c2ccccn2)CC1,IC50,Vero [1],10.1 µM (active)
same,CC50,Vero [2],> 25 µM (active)
CC(C)C(=O)Nc1ccc(NC(=O)c2ccccn2)cn1,EC50,[3],0.44 µM (active)
same,EC50,HT-1080,> 50 µM (not active)
Clc1cccc2c1Sc1ccccc1CC2N1CCNCC1 (stereo not given),EC50,[4],7.22 µM (active)
same,EC50,[5],7.41 µM (active)
same,CC50,[6],8.49 µM (active)
same,CC50,[7],7.37 µM (active)
same,CC50,[8],9.77 µM (active)
same,IC50,cells [9],11.5 µM (active)
O=C(c1cc2c(s1)-c1ccccc1OC2)N1CCN(c2ccccn2)CC1,EC50,[10],33.7 µM (inactive)
same,EC50,[11],> 79.4 µM (not active)
same,EC50,[12],23.2 µM (not active)
O=c1oc(-c2ccccc2F)nc2c1cnn2-c1ccccc1,EC50,[10],> 79.4 µM (inactive)
same,EC50,[11],> 79.4 µM (not active)
same,EC50,[12],> 79.4 µM (not active)
CCCCc1ccc(-c2nc(-c3ccncc3)no2)cc1,EC50,[3],60.6 µM (active)
same,EC50,HT-1080,> 50 µM (not active)
O=C(CSc1ncnc2c1oc1ccccc12)OCc1ccccc1,EC50,[10],> 2.94 µM (inactive)
same,EC50,[11],> 79.4 µM (not active)
same,EC50,[12],> 8.82 µM (not active)
Cc1cccc(-n2c(SCC(=O)Nc3ncc(Cl)cc3Cl)nc3ccccc32)c1,CC50,[13],2.36 µM (active)
same,EC50,BJ [14],33.7 µM (active)
same,EC50,BJ [15],50.5 µM (inconclusive)
same,EC50,BJ [16],> 150 µM (not active)
same,EC50,[17],94.2 µM (active)
same,IC50,Vero [1],0.56 µM (active)
same,CC50,Vero [2],> 25 µM (active)
same,IC50,cells [18],1.26 µM (active)
O=C(CCC1CCCC1)c1c(O)c2ccccc2oc1=O,CC50,[19],15.4 µM (active)
same,CC50,[6],23.5 µM (active)
same,CC50,[7],> 20 µM (active)
same,CC50,[8],14.4 µM (active)
same,EC50,[20],5.96 µM (active)
same,IC50,cells [9],8.45 µM (active)
Cc1ccc(CN2C(=O)N/C(=C\c3ccc(-c4ccc(C(=O)O)cc4C)o3)C2=O)cc1,CC50,[21],> 40 µM (active)
CN1CCN(c2ccccc2NC(=O)c2cccc(OCc3ccccc3)c2)CC1,IC50,[22],4.3 µM (active)
same,IC50,[23],4.17 µM (active)
CCCN1C(=O)c2ccccc2NC1c1ccc(OC)cc1O (stereo not given),AC50,[24],12.2 µM (active)
same,IC50,Vero [1],24.1 µM (active)
Cc1ccc(S(=O)(=O)Nc2ccc3c(c2)C(=O)N([C@@H](C)CO)C[C@H](C)[C@H](CN(C)Cc2ccc(Cl)c(Cl)c2)O3)cc1,AC50,[25],5.67 µM (active)
C[C@@H]1CN([C@@H](C)CO)C(=O)c2cc(NC(=O)Nc3ccc(C(F)(F)F)cc3)ccc2O[C@@H]1CN(C)Cc1ccc(Cl)c(Cl)c1,AC50,[25],3.38 µM (active)
C[C@H]1CN([C@@H](C)CO)C(=O)c2cccc(NC(=O)c3nc4ccccc4s3)c2O[C@@H]1CN(C)S(=O)(=O)c1ccc(Cl)cc1,AC50,[25],1.8 µM (active)
C[C@H]1CN([C@@H](C)CO)C(=O)Cc2cc(NC(=O)Nc3ccccc3)ccc2O[C@H]1CN(C)Cc1ccc(C(F)(F)F)cc1,AC50,[25],3.26 µM (active)
O=C(Nc1ccccc1Cl)c1csc(-c2cccnc2)n1,CC50,[21],> 40 µM (active)
same,AC50,[26],0.493 µM (active)
Cc1[nH]n(-c2ccc(Cl)cc2)c(=O)c1N=Nc1cccnc1,CC50,[6],26.7 µM (active)
same,CC50,[7],> 20 µM (active)
same,CC50,[8],12.2 µM (active)
same,IC50,cells [9],1.78 µM (active)
CCOc1ccc(/N=c2\cc(-c3ccc(OC)cc3)oc3ccccc23)cc1,CC50,[21],> 40 µM (active)
same,EC50,[27],2.64 µM (active)
same,EC50,[4],47.5 µM (active)
same,EC50,[28],> 60 µM (not active)
same,EC50,[5],60.6 µM (active)
Clc1ccc(Cl)c(-c2ccc(/C=N/c3nc[nH]n3)o2)c1,EC50,[10],13.7 µM (inactive)
same,EC50,[11],> 79.4 µM (not active)
same,EC50,[12],12.6 µM (not active)
COc1ccccc1-c1cc(C(=O)N/N=C/c2cccs2)c2ccccc2n1,CC50,[13],24.7 µM (active)
same,IC50,Vero [1],18.9 µM (active)
same,CC50,Vero [2],> 25 µM (active)
COc1ccc2c3c([nH]c2c1)[C@H](CO)N(Cc1ccccn1)CC31CCN(Cc2cccc(F)c2)CC1,AC50,[29],1.12 µM (active)
same,AC50,[30],1.21 µM (active)
same,AC50,[31],1.48 µM (active)
same,AC50,[32],0.422 µM (active)
same,AC50,[33],> 39 µM (inactive)
same,AC50,[34],0.559 µM (active)
COc1ccc(-c2ccc([C@H]3[C@H](C#N)N(C(=O)c4cccnc4)[C@H]3CO)cc2)cc1,AC50,[29],1.15 µM (active)
same,AC50,[30],> 100 µM (inactive)
same,AC50,[31],1.25 µM (active)
same,AC50,[32],0.764 µM (active)
same,AC50,[33],> 42 µM (inactive)
same,AC50,[34],0.586 µM (active)
C/C=C/c1ccccc1[C@H]1[C@@H](C#N)N(c2nc(CC)cs2)[C@@H]1CO,AC50,[31],3.11 µM (active)
same,AC50,[33],21.4 µM (active)
COc1ccc2c3c([nH]c2c1)[C@@H](CO)N(Cc1ccccc1)CC31CCN(Cc2cncnc2)CC1,AC50,[29],1.27 µM (active)
same,AC50,[31],2.12 µM (active)
same,AC50,[32],0.929 µM (active)
same,AC50,[33],> 39 µM (inactive)
same,AC50,[34],0.871 µM (active)

# Reference: ChEMBL document CHEMBL1201862, “PubChem BioAssay data set” (2004)
